Data reported in patent US9113629B2, “4-amino-6-(4-substituted-phenyl)-picolinates and 6-amino-2-(4-substituted-phenyl)-pyrimidine-4-carboxylates and their use as herbicides” (DOW AGROSCIENCES LLC, priority 2013, dated 2015).
Like-named read-outs stand apart in the source and are kept apart here.

Assays:
[1] = tested on: Key Broadleaf Weed and Crop Species; assay: Post-emergent Test II herbicidal activity (Table 5); format: in vivo; conditions: post-emergence, 336 h, post-emergent, 14 days after application; for pest or weed control at 70 g/ha: application rate 70 g ai/ha; for pest or weed control at 140 g/ha: application rate 140 g ai/ha
Procedure, shortened: (§1)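 Visual injury ratings (0 = no injury, 100 = complete kill) were taken 14 d after treatment, relative to untreated plants. Seedlings at the first–second true leaf stage received overhead spray at 187 L/ha; the highest rate was serially diluted to ½×, ¼×, ⅛× and 1/16×.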

[2] = tested on: Key Grass and Sedge Weeds as well as Grass Crops; assay: Post-emergent Test II herbicidal activity (Table 6); format: in vivo; conditions: post-emergence, 336 h; for pest or weed control at 70 g/ha: application rate 70 g ai/ha; for pest or weed control at 140 g/ha: application rate 140 g ai/ha
Procedure, shortened: as §1

[3] = ABUTH: velvetleaf (Abutilon theophrasti), read-out: Visual Growth Reduction (%) 14 Days After Application, ABUTH
[4] = AMARE: redroot pigweed (Amaranthus retroflexus), read-out: Visual Growth Reduction (%) 14 Days After Application, AMARE
[5] = BRSNN: oilseed-rape, canola (Brassica napus), read-out: Visual Growth Reduction (%) 14 Days After Application, BRSNN
[6] = CHEAL: lambsquarters (Chenopodium album), read-out: Visual Growth Reduction (%) 14 Days After Application, CHEAL
[7] = EPHHL: wild poinsettia (Euphorbia heterophylla), read-out: Visual Growth Reduction (%) 14 Days After Application, EPHHL
[8] = HELAN: sunflower (Helianthus annuus), read-out: Visual Growth Reduction (%) 14 Days After Application, HELAN
[9] = VIOTR: wild pansy (Viola tricolor), read-out: Visual Growth Reduction (%) 14 Days After Application, VIOTR
[10] = CYPES: yellow nutsedge (Cyperus esculentus), read-out: Visual Growth Reduction (%) 14 Days After Application, CYPES
[11] = DIGSA: crabgrass (Digitaria sanguinalis), read-out: Visual Growth Reduction (%) 14 Days After Application, DIGSA
[12] = ECHCG: barnyardgrass (Echinochloa crus-galli), read-out: Visual Growth Reduction (%) 14 Days After Application, ECHCG
[13] = ORYSA: rice (Oryza sativa), read-out: Visual Growth Reduction (%) 14 Days After Application, ORYSA
[14] = SETFA: giant foxtail (Setaria faberi), read-out: Visual Growth Reduction (%) 14 Days After Application, SETFA
[15] = SORVU: grain sorghum (Sorghum vulgare), read-out: Visual Growth Reduction (%) 14 Days After Application, SORVU
[16] = TRZSS (wheat, Triticum aestivum), read-out: Visual Growth Reduction (%) 14 Days After Application, TRZSS
[17] = ZEAMX: maize, corn (Zea mays), read-out: Visual Growth Reduction (%) 14 Days After Application, ZEAMX

COc1c(N)nc(-c2cc(F)c(C(F)F)cc2F)nc1C(=O)O [Compound 203]
143.7 to 145.5 °C: melting point
75 to 84%: pest or weed control at 140 g/ha [1, 8] | pest or weed control at 140 g/ha [2, 10] | pest or weed control at 140 g/ha [2, 14]
45 to 59%: pest or weed control at 70 g/ha [1, 4] | pest or weed control at 140 g/ha [1, 5]
0 to 29%: pest or weed control at 70 g/ha [1, 9] | pest or weed control at 70 g/ha [2, 10] | pest or weed control at 70 g/ha [2, 11] | pest or weed control at 140 g/ha [2, 11] | pest or weed control at 70 g/ha [2, 12] | pest or weed control at 140 g/ha [2, 12] | pest or weed control at 70 g/ha [2, 13] | pest or weed control at 140 g/ha [2, 13] | pest or weed control at 70 g/ha [2, 14] | pest or weed control at 70 g/ha [2, 15] | pest or weed control at 140 g/ha [2, 15] | pest or weed control at 70 g/ha [2, 16] | pest or weed control at 140 g/ha [2, 16] | pest or weed control at 70 g/ha [2, 17] | pest or weed control at 140 g/ha [2, 17]
60 to 74%: pest or weed control at 70 g/ha [1, 8]
85 to 94%: pest or weed control at 70 g/ha [1, 6]
95 to 100%: pest or weed control at 140 g/ha [1, 4] | pest or weed control at 140 g/ha [1, 6] | pest or weed control at 70 g/ha [1, 7] | pest or weed control at 140 g/ha [1, 7]
30 to 44%: pest or weed control at 70 g/ha [1, 3] | pest or weed control at 140 g/ha [1, 3] | pest or weed control at 70 g/ha [1, 5] | pest or weed control at 140 g/ha [1, 9]
